A short description of data set [1]: Cytotoxic activity against human HeLa cells assessed as reduction in cell viability incubated for 24 hrs by MTT assay. The class given is cell-based. (In general: Tetrazolium assays rely on reduction of a dye to a coloured formazan, in cell work by metabolically active cells.)
Data set [2] can be described thus: Cytotoxic activity against human HepG2 cells assessed as cell viability at 100 ug/ml incubated for 24 hrs by MTT assay. The class given is cell-based. Conditions: read-out: Activity.
Data set [3] in a line: Cytotoxic activity against human HeLa cells assessed as cell viability at 100 ug/ml incubated for 24 hrs by MTT assay. The format is cell-based. Conditions: read-out: Activity.
Data set [4] in a line: Cytotoxic activity against human HepG2 cells assessed as reduction in cell viability incubated for 24 hrs by MTT assay. The format is cell-based.
Data set [5] is described as follows: Cytotoxic activity against human HepG2 cells assessed as cell viability at 1000 ug/ml incubated for 24 hrs by MTT assay. The format is cell-based. The conditions noted are these: read-out: Activity.
A short description of data set [6]: Cytotoxic activity against human HepG2 cells assessed as cell viability at 0.1 ug/ml incubated for 24 hrs by MTT assay. The class given is cell-based. The conditions noted are these: read-out: Activity.
The nature of data set [7]: Cytotoxic activity against human HeLa cells assessed as cell viability at 1 ug/ml incubated for 24 hrs by MTT assay. The format is cell-based. The conditions noted are these: read-out: Activity.
Data set [8] can be described thus: Selectivity index, ratio of CC50 for human HeLa cells to IC50 for CQ-sensitive Plasmodium falciparum 3D7. The format is functional.
Data set [9] is described as follows: Cytotoxic activity against human HeLa cells assessed as cell viability at 1000 ug/ml incubated for 24 hrs by MTT assay. The format is cell-based. Conditions: read-out: Activity.
Data set [10] is described as follows: Cytotoxic activity against human HepG2 cells assessed as cell viability at 10 ug/ml incubated for 24 hrs by MTT assay. The format is cell-based. The conditions noted are these: read-out: Activity.
Data set [11] in a line: Cytotoxic activity against human HeLa cells assessed as cell viability at 0.1 ug/ml incubated for 24 hrs by MTT assay. The class given is cell-based. The conditions noted are these: read-out: Activity.
Data set [12] can be described thus: Cytotoxic activity against human HepG2 cells assessed as cell viability at 1 ug/ml incubated for 24 hrs by MTT assay. The format is cell-based. The conditions noted are these: read-out: Activity.
The nature of data set [13]: Selectivity index, ratio of CC50 for human HepG2 cells to IC50 for CQ-sensitive Plasmodium falciparum 3D7. The format is functional.
Data set [14] can be described thus: Cytotoxic activity against human HeLa cells assessed as cell viability at 10 ug/ml incubated for 24 hrs by MTT assay. The format is cell-based. The conditions noted are these: read-out: Activity.
In data set [15] the test system is Plasmodium falciparum. Briefly: Antimalarial activity against CQ-sensitive Plasmodium falciparum 3D7 cultivated in human type O+ red blood cells assessed as reduction in parasite infection incubated for 48 hrs by microscopy. The format is functional, organism-based. Conditions: 3D7, 48 h.
Data set [16] has as its system Plasmodium falciparum. Nature of the data set: Antimalarial activity against CQ-resistant Plasmodium falciparum W2 cultivated in human type O+ red blood cells assessed as reduction in parasite infection incubated for 48 hrs by microscopy. The class given is functional, organism-based. Conditions: W2, 48 h.
Data set [17] relates to Mus musculus. Briefly: Toxicity in Plasmodium berghei NK65 infected Swiss albino mouse assessed as mouse mortality at 10 mg/kg, po dosed for four consecutive days beginning on first day of infection and measured on day 7 post infection relative to untreated control. The format is organism-based. Also noted: dose 10 mg/kg, route oral. The conditions noted are these: in vivo.

Data set [18] relates to Mus musculus. Briefly: Toxicity in Plasmodium berghei NK65 infected Swiss albino mouse assessed as mouse survival at 10 mg/kg, po dosed for four consecutive days beginning on first day of infection and measured on day 7 post infection relative to untreated control. The format is organism-based. Also noted: dose 10 mg/kg, route oral. The conditions noted are these: in vivo.

Data set [19] has as its system Mus musculus. Briefly: Toxicity in Plasmodium berghei NK65 infected Swiss albino mouse assessed as mouse survival at 10 mg/kg, po dosed for four consecutive days beginning on first day of infection and measured on day 12 post infection relative to untreated control. The format is organism-based. Also noted: dose 10 mg/kg, route oral. Conditions: in vivo.
The subject of data set [20] is Plasmodium berghei. Nature of the data set: Antimalarial activity against Plasmodium berghei NK65 infected in Swiss albino mouse assessed as parasitemia level at 10 mg/kg, po dosed for four consecutive days beginning on first day of infection and measured on day 7 post infection (reference value: 5.42 +/- 0.79%). The class given is functional.
Data set [21] concerns Plasmodium berghei. Briefly: Antimalarial activity against Plasmodium berghei NK65 infected in Swiss albino mouse assessed as parasitemia level at 10 mg/kg, po dosed for four consecutive days beginning on first day of infection and measured on day 12 post infection (reference value: 8.81 +/- 1.17%). The format is functional.
In data set [22] the test system is Mus musculus. Nature of the data set: Toxicity in Plasmodium berghei NK65 infected Swiss albino mouse assessed as mouse mortality at 10 mg/kg, po dosed for four consecutive days beginning on first day of infection and measured on day 12 post infection relative to untreated control. The format is organism-based. More on the design: dose 10 mg/kg, route oral. The conditions noted are these: in vivo.

For data set [23], the system named is Plasmodium berghei. Nature of the data set: Antimalarial activity against Plasmodium berghei NK65 infected in Swiss albino mouse assessed as inhibition of parasitemia at 10 mg/kg, po dosed for four consecutive days beginning on first day of infection and measured on day 12 post infection relative to untreated control. The conditions noted are these: NK65, 288 h. The format is functional.

Data set [24] has as its system Plasmodium berghei. Nature of the data set: Antimalarial activity against Plasmodium berghei NK65 infected in Swiss albino mouse assessed as inhibition of parasitemia at 10 mg/kg, po dosed for four consecutive days beginning on first day of infection and measured on day 7 post infection relative to untreated control. The conditions noted are these: NK65, 168 h. The class given is functional.

≈ marks a conversion by molar mass, not a printed value.

Experimental findings from ChEMBL document CHEMBL3421546 (Bioorg Med Chem Lett, 2015) are described below.

For the compound `NS(=O)(=O)c1ccc(Nc2ccnc3cc(Cl)ccc23)cc1`, the CC50 (in general, the concentration that lowers cell viability or growth by half) at 24 h was found to be 793 µg/mL (≈ 2380 µM) in data set [1] and 234 µg/mL (≈ 701 µM) in [4]. Moreover, the figures for the viability at 24 h, 100 ug/ml in data set [2] and in data set [3] were 65% and 91%, respectively. The values for the viability at 24 h, 1000 ug/ml in data set [5] and in [9] were 43% and 37%, respectively. In addition, the viability at 24 h, 0.1 ug/ml in data set [6] and in data set [11] was 93% throughout. The viability at 24 h, 1 ug/ml in [7] worked out at 95%; in data set [12] it was 94%. Besides, the “Ratio CC50/IC50” value stood at 364 in data set [8] and 112 in [13]. The viability at 24 h, 10 ug/ml stood at 85% in data set [10] and 100% in [14]. Also, in the data set on Plasmodium falciparum [15], the IC50 – broadly, the concentration needed to halve the response being measured – came out at 2.18 µg/mL (≈ 6.53 µM).

As for `C[C@H]1[C@H](OC(=O)CCC(=O)O)O[C@@H]2O[C@@]3(C)CC[C@H]4[C@H](C)CC[C@@H]1[C@@]24OO3` [ARTESUNATE], the IC50 in the data set on Plasmodium falciparum [16] is below 0.39 µg/mL.

Consider `NNC(=O)c1cccnc1` [NICOTINIC ACID HYDRAZIDE], for which the CC50 at 24 h in data set [1] stood at 153 µg/mL (≈ 1120 µM). Also, in data set [3], the viability at 24 h, 100 ug/ml was found to be 58%. For the same compound, in [7], the viability at 24 h, 1 ug/ml came to 87%. Besides, the “Ratio CC50/IC50” value in data set [8] is below 3.06. Also, the viability at 24 h, 1000 ug/ml in [9] worked out at 25%. The viability at 24 h, 0.1 ug/ml in data set [11] was found to be 88%. In [14], the viability at 24 h, 10 ug/ml came out at 92%. Moreover, the IC50 with Plasmodium falciparum [15] was above 50 µg/mL.

Consider `O=S(=O)(Nc1nccs1)c1ccc(Nc2ccnc3cc(Cl)ccc23)cc1`, for which the CC50 at 24 h in [1] came out at 334 µg/mL (≈ 801 µM). In addition, in data set [3], the viability at 24 h, 100 ug/ml worked out at 65%. Moreover, in data set [7], the viability at 24 h, 1 ug/ml turned out to be 71%. In data set [8], the “Ratio CC50/IC50” value is reported as 56. Further, the viability at 24 h, 1000 ug/ml in [9] was 12%. The viability at 24 h, 0.1 ug/ml in data set [11] stood at 74%. The viability at 24 h, 10 ug/ml in [14] was 60%. The IC50 in the data set with Plasmodium falciparum [15] was 5.97 µg/mL (≈ 14.3 µM).

In the case of `O=S(=O)(Nc1ncccn1)c1ccc(Nc2ccnc3cc(Cl)ccc23)cc1`, the CC50 at 24 h is 494 µg/mL (≈ 1200 µM) in [1] and above 1000 µg/mL in data set [4]. Further, the viability at 24 h, 100 ug/ml in data set [2] and in [3] was 75% in each case. Also, the viability at 24 h, 1000 ug/ml amounted to 68% in data set [5] and 22% in [9]. Moreover, the viability at 24 h, 0.1 ug/ml in data set [6] and in data set [11] was 85% throughout. Moreover, the viability at 24 h, 1 ug/ml turned out to be 82% in data set [7] and 90% in [12]. In addition, the figures for the “Ratio CC50/IC50” value in data set [8] and in [13] were 30 and above 61, respectively. For the same compound, the figures for the viability at 24 h, 10 ug/ml in data set [10] and in data set [14] were 89% and 76%, respectively. Further, the IC50 in the data set on Plasmodium falciparum [15] is 16.3 µg/mL (≈ 39.6 µM).

Take `CCN(CC)CCCC(C)Nc1ccnc2cc(Cl)ccc12` (centres undefined) [CHLOROQUINE]: the CC50 at 24 h in data set [1] and in data set [4] was above 1000 µg/mL throughout. Moreover, the viability at 24 h, 100 ug/ml in data set [2] worked out at 67%; in data set [3] it was 100%. Besides, the Activity entry is listed as “Non-toxic” in the data set with Mus musculus [17]; “Non-toxic” in the data set with Mus musculus [18]; “Non-toxic” in the data set on Mus musculus [19]; 1.72% with Plasmodium berghei [20]; 1.55% with Plasmodium berghei [21]; “Non-toxic” in the data set on Mus musculus [22]. Further, the viability at 24 h, 1000 ug/ml was 60% in [5] and 92% in data set [9]. For the same compound, the viability at 24 h, 0.1 ug/ml in [6] came to 93%; in data set [11] it was 98%. Besides, the viability at 24 h, 1 ug/ml was 94% in [7] and 97% in data set [12]. Moreover, the “Ratio CC50/IC50” value in [8] and in [13] was above 1000 in each case. For the same compound, the viability at 24 h, 10 ug/ml in data set [10] worked out at 92%; in [14] it was 97%. Further, the inhibition in vivo (as a rule, how much of the control response was suppressed) at 10 mg/kg came to 82% in the data set on Plasmodium berghei [23] and 68% with Plasmodium berghei [24]. The IC50 with Plasmodium falciparum [15] was below 0.19 µg/mL; in the data set with Plasmodium falciparum [16], below 0.39 µg/mL.

Take `Cc1cc(NS(=O)(=O)c2ccc(Nc3ccnc4cc(Cl)ccc34)cc2)no1`: the CC50 at 24 h in [1] turned out to be 290 µg/mL (≈ 699 µM). Besides, the viability at 24 h, 100 ug/ml in data set [3] was determined as 61%. Further, the viability at 24 h, 1 ug/ml in data set [7] was 72%. Moreover, the “Ratio CC50/IC50” value in [8] was determined as 12. For the same compound, the viability at 24 h, 1000 ug/ml in [9] came out at 17%. Also, the viability at 24 h, 0.1 ug/ml in data set [11] was determined as 67%. In addition, the viability at 24 h, 10 ug/ml in data set [14] came out at 59%. In addition, the IC50 in the data set on Plasmodium falciparum [15] turned out to be 23.8 µg/mL (≈ 57.5 µM).

`O=S(=O)(Nc1ccccn1)c1ccc(Nc2ccnc3cc(Cl)ccc23)cc1`: the results for the CC50 at 24 h in data set [1] and in data set [4] were 113 µg/mL (≈ 275 µM) and 252 µg/mL (≈ 613 µM), respectively. In addition, the viability at 24 h, 100 ug/ml in data set [2] stood at 57%; in [3], 53%. The viability at 24 h, 1000 ug/ml in [5] was 48%; in data set [9], 11%. Moreover, the results for the viability at 24 h, 0.1 ug/ml in [6] and in data set [11] were 92% and 82%, respectively. In addition, the values for the viability at 24 h, 1 ug/ml in data set [7] and in data set [12] were 78% and 97%, respectively. For the same compound, the “Ratio CC50/IC50” value in data set [8] is on record as 31; in [13], 69. In addition, the figures for the viability at 24 h, 10 ug/ml in [10] and in data set [14] were 86% and 68%, respectively. The IC50 in the data set on Plasmodium falciparum [15] amounted to 3.64 µg/mL (≈ 8.86 µM).
